{"source": "patent US20210220295A1", "about": "“TREATMENT OF CANCER BY GUANIDINIUM DERIVATIVES” (priority 2018, published 2021)", "key": {"[1]": {"test_system": "MCF-7 brca1+/+cells", "conditions": "10 μM, exposure for 10 consecutive days; cited from earlier work"}, "[2]": {"test_system": "CAPANI cells (which are deficient in brca2)", "conditions": "cited from earlier work"}, "[3]": {"conditions": "mouse, in vivo"}}}
{"compound": "CN(C)Cc1ccc(-c2nc3cccc4c3n2CCNC4=O)cc1", "note": "[AG14361]", "values": [{"measurement": "MCF-7 brca1+/+ cells eradicated", "setting": "[1]", "result": 50, "unit": "%"}]}
{"compound": "O=C1CCC(=O)N1c1cc(Cc2n[nH]c(=O)c3ccccc23)ccc1F", "note": "[KU0058684]", "values": [{"measurement": "inhibition of CAPANI cells", "setting": "[2]", "result": "inhibited"}]}
{"compound": "Cc1nc2c(O)cccc2c(=O)[nH]1", "note": "[NU1025]", "values": [{"measurement": "inhibition of CAPANI cells", "setting": "[2]", "result": "not inhibited"}]}
{"compound": "poly-[2-(2-ethoxyethoxyethyl)guanidinium hydrochloride]", "values": [{"measurement": "tolerated dose, daily intravenous dosing regime", "setting": "[3]", "result": 2.5, "unit": "mg/kg body weight"}, {"measurement": "tolerated dose, weekly basis", "setting": "[3]; iv", "result": 5, "unit": "mg/kg body weight"}]}
